According to PubChem BioAssay (NCI):
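Briefly, cells in 96-well plates were exposed to five compound concentrations for 48 h, and endpoints were estimated by linear interpolation. Definition used: TGI = concentration required for complete inhibition of growth.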

Tests used:
Assay in all cases: inhibition of tumour cell growth, NCI panel, 48 h
MDA-MB-231 breast = tested on: MDA-MB-231 breast
NCI/ADR-RES ovarian = tested on: NCI/ADR-RES ovarian
SK-MEL-28 melanoma = tested on: SK-MEL-28 melanoma
OVCAR-8 ovarian = tested on: OVCAR-8 ovarian
SF-268 CNS = tested on: SF-268 CNS
SR leukemia = tested on: SR leukemia
OVCAR-5 ovarian = tested on: OVCAR-5 ovarian
SW-620 colon = tested on: SW-620 colon
UACC-62 melanoma = tested on: UACC-62 melanoma
LOX IMVI melanoma = tested on: LOX IMVI melanoma
SK-OV-3 ovarian = tested on: SK-OV-3 ovarian
MDA-MB-435 = tested on: MDA-MB-435
A498 renal = tested on: A498 renal
COLO 205 colon = tested on: COLO 205 colon
786-0 renal = tested on: 786-0 renal
DU-145 prostate = tested on: DU-145 prostate
HCT-15 colon = tested on: HCT-15 colon
NCI-H460 lung = tested on: NCI-H460 lung
SNB-75 CNS = tested on: SNB-75 CNS
UACC-257 melanoma = tested on: UACC-257 melanoma

| SMILES | TGI (MDA-MB-231 breast) [µM] | TGI (NCI/ADR-RES ovarian) [µM] | TGI (SK-MEL-28 melanoma) [µM] | TGI (OVCAR-8 ovarian) [µM] | TGI (SF-268 CNS) [µM] | TGI (SR leukemia) [µM] | TGI (OVCAR-5 ovarian) [µM] | TGI (SW-620 colon) [µM] | TGI (UACC-62 melanoma) [µM] | TGI (LOX IMVI melanoma) [µM] | TGI (SK-OV-3 ovarian) [µM] | TGI (MDA-MB-435) [µM] | TGI (A498 renal) [µM] | TGI (COLO 205 colon) [µM] | TGI (786-0 renal) [µM] | TGI (DU-145 prostate) [µM] | TGI (HCT-15 colon) [µM] | TGI (NCI-H460 lung) [µM] | TGI (SNB-75 CNS) [µM] | TGI (UACC-257 melanoma) [µM] |
| --- | --- | --- | --- | --- | --- | --- | --- | --- | --- | --- | --- | --- | --- | --- | --- | --- | --- | --- | --- | --- |
| O[C@H]1[C@H]2[C@H](O)C[C@H](CCOCc3ccccc3)CN2C[C@H]1O | > 100 | > 100 | > 100 | > 100 | > 100 | > 100 | > 100 | > 100 | > 100 | > 100 | > 100 | > 100 | > 100 | > 100 | > 100 | > 100 | > 100 | > 100 | > 100 | > 100 |
| Cn1c2ccccc2n2c3ccccc3c(=O)c(C#N)c12 | 41.9 | > 60.1 | > 100 | > 44.5 | > 100 | 48.3 | > 100 | > 100 | > 58.3 | > 56.1 | > 100 | > 100 | > 75.8 | > 100 | > 59.9 | 65.8 | > 100 | > 61.1 | > 96.6 | > 100 |
| O=C1/C(=C/c2ccccc2)CCc2ccccc21 | 87.7 | 83.2 | 38.3 | 65.5 | 37.4 | 38.9 | 33.4 | 34.2 | 36.7 | 33 | 67.5 | 28.2 | 34.5 | 38.2 | 34.7 | 37 | 86.9 | 65.4 | 31.9 | 31.4 |
| CCOC(=O)CCC(NC(=O)c1ccc(Nc2cnc3ccc(C(F)(F)F)cc3n2)cc1)C(=O)OCC (stereo not given) | 25.2 | 52.7 | > 100 | 33.8 | > 100 | > 100 | > 100 | > 100 | > 77.5 | > 100 | > 60.5 | > 100 | > 79 | > 100 | > 56.6 | > 100 | > 100 | > 100 | 29.9 | > 100 |
| CC1(C)CCC[C@@]2(C)C1C(=O)[C@@H]1O[C@]1(C)[C@@H]2CO (stereo not given in full) | > 100 | > 100 | 80.9 | > 100 | > 100 | 24.9 | > 100 | > 100 | > 100 | > 100 | > 100 | > 100 | > 100 | 85.1 | > 100 | > 100 | > 100 | > 100 | 79 | > 100 |
| CCCC(=O)OCC1OC(n2cc(F)c(=O)[nH]c2=O)C(F)C1OC(=O)CCC (stereo not given) | > 100 | > 100 | > 100 | > 100 | > 100 | > 100 | > 100 | > 100 | > 100 | > 100 | > 100 | > 100 | > 100 | > 100 | > 100 | > 100 | > 100 | > 100 | > 100 | > 100 |
| O=S(=O)(NC1OCCCC1I)c1ccccc1 (stereo not given) | > 100 | > 100 | > 100 | > 100 | > 100 | > 100 | > 100 | > 100 | > 100 | > 100 | > 100 | > 100 | > 100 | > 100 | > 100 | > 100 | > 100 | > 100 | > 100 | > 100 |
| O=C1CCCCCC1CC(Sc1ccccc1)Sc1ccccc1 (stereo not given) | > 100 | > 100 | > 100 | > 100 | > 100 | > 100 | > 100 | > 100 | > 100 | > 100 | > 100 | > 100 | > 100 | > 100 | > 100 | > 100 | > 100 | > 100 | > 100 | > 100 |
| CCNc1nc2c(ncn2C2CC(O)C(COP(=O)(O)O)O2)c(=O)[nH]1 (stereo not given) | > 100 | > 100 | > 100 | > 100 | > 100 | > 100 | > 100 | > 100 | > 100 | > 100 | > 100 | > 100 | > 100 | > 100 | > 100 | > 100 | > 100 | > 100 | > 100 | > 100 |
| O=C(O)C1(Cc2ccc3c(c2)CCC3)Cc2ccccc2C1=O (stereo not given) | > 100 | > 100 | > 100 | > 100 | > 100 | > 100 | > 100 | > 100 | > 100 | > 100 | > 100 | > 100 | > 100 | > 100 | > 100 | > 100 | > 100 | > 100 | > 100 | > 100 |
